Source: PMC8699718, “A structurally conserved site in AUP1 binds the E2 enzyme UBE2G2 and is essential for ER-associated degradation” (PLoS Biology, 2021)

Key:
Type in all cases: cell-based, human
UBE2G2 = UBE2G2 levels in HT1080 cells loaded with oleic acid; conditions: HT1080, 200 μM oleic acid
Procedure: Plasmid transfections were carried out using PolyFect (Qiagen, Germantown, MD, USA) or JetPrime (Polyplus, New York, NY, USA) reagents. For CHX chase experiments, approximately 24 hours following plasmid transfection, cells were treated with 50 μg/mL CHX in complete media for the indicated times. For lipid droplet experiments, cells were treated with 200 μM oleic acid (Millipore Sigma) for 16 hours, beginning 24 hours following transfection. For assessment of GFP^u stability, cells were cultured in DMEM supplemented with 10% FetalPlex animal serum complex (Gemini Bio, West Sacramento, CA, USA) and treated with 50 μM emetine for the indicated times to inhibit protein synthesis. […] Clarified lysates or immunoprecipitates were denatured by heating in NuPAGE LDS Sample Buffer with β-mercaptoethanol at 70°C for 10 minutes, resolved on Bis-Tris polyacrylamide gels in NuPAGE MES or MOPS SDS running buffer and analyzed by western blotting. Proteins were detected using Clarity Western ECL (Bio-Rad, Hercules, CA, USA), Radiance Q (Azure Biosystems, Dublin, CA, USA), or SuperSignal Femto West (Thermo Scientific, Waltham, MA, USA) ECL reagents and a c280 Imager (Azure Biosystems) or autoradiography. […]

gp78:UBE2G2 = test: co-IP of gp78 with transfected MYC-UBE2G2, +/- oleic acid; conditions: WT HT1080, oleic acid loading, three experiments, reviewer response
Excerpt: (§1) page 10: Major points: The phenotypes they show are strong but it would be nice to see the initial observations repeated in other cell lines. […] We have now generated HEK293 AUP1 KO cell lines and have recapitulated our initial results on domain requirements for both NHK and RI332 (Fig 1G-H, Fig 2C-D). We also provide data that E2 loss similarly occurs in these HEK293 AUP1 KO cells and that E2 stability can be restored by GFP-G2BR (Fig S5D and S5E). To extend our observations beyond HT1080 and HEK293, we also generated and examined M17 AUP1 KO cells, and observed a similar destabilization of UBE2G2 with loss of AUP1. […] Although, it is possible that the stability of UBE2G2 is due to the level of AUP1 in these cells, it is not clear whether the G2BR of AUP1 is always available for UBE2G2 binding and whether AUP1 acts as a sink for UBE2G2 when associated with lipid droplets. […] They can then compare the 'pulldown levels' of AUP1 and gp78 to the amounts of protein in the reference binding domains in (Figure 6). […] Alternatively, NHK degradation may be reduced under increasing Oleic acid levels but UBE2G2 binding is not affected. […] We have now loaded cells with oleic acid and assessed E2 levels and NHK degradation (Fig S5A and Fig S5B). […]

AUP1:UBE2G2 = test: co-IP of AUP1 with transfected MYC-UBE2G2, +/- oleic acid; conditions: WT HT1080, oleic acid loading, three experiments, reviewer response
Excerpt: as §1

## CCCCCCCC/C=C\CCCCCCCC(=O)O [oleic acid]
UBE2G2
  effect on UBE2G2 levels: affected neither UBE2G2 levels
gp78:UBE2G2
  decrease of gp78 co-association with MYC-UBE2G2: ~ 20%
AUP1:UBE2G2
  decrease of AUP1 co-association with MYC-UBE2G2: ~ 27%
